Laboratory results as given in patent US5939414A, “Benzodiazepine hydrazide derivatives as inhibitors of HIV integrase” (Merck & Co., Inc., priority 1997, dated 1999).

Columns and labels:
HIV integrase = target: T1, HIV integrase (Human immunodeficiency virus type 1 group M subtype B, UniProt P04585); test: Inhibition of strand transfer by HIV integrase; assay type: biochemical
T1 construct: HIV Integrase
Protocol: Assay for Inhibition of Strand Transfer by HIV Integrase
Inhibition of strand transfer was conducted according to Hazuda, D. J. et al. Nucleic Acids Res., 22, 1121 (1994), hereby incorporated by reference for these purposes.

HIV-1 integrase [1] = target: T2, HIV-1 integrase (Human immunodeficiency virus type 1 group M subtype B, UniProt P04585); test: biochemical; set-up: HIV-1 integrase
Protocol: HIV Integrase Assay: Substrate Cleavage
An assay for trimming of 3' end of HIV long terminal repeat terminus by HIV-1 integrase was conducted according to LaFemina, E. R. et al., J. Virol. 10, 5624 (1991), herein incorporated by reference for these purposes. To assay inhibition of HIV integrase substrate cleavage, the reaction was conducted with inhibitor having various concentrations in the range of 0.1 to 100 μM.

HIV-1 integrase [2] = target: T2, HIV-1 integrase; test: Assembly of HIV-1 integrase as catalytically active complex; assay type: biochemical; set-up: HIV-1 Integrase
Protocol: Assay for Assembly of HIV-1 Integrase as Catalytically Active Complex
Inhibition of assembly of HIV-1 Integrase was conducted according to Wolfe, A. L. et al., J. Virol. 70, 1424 (1996), herein incorporated by reference for these purposes.

Compound `Cc1[nH]cnc1C(=O)NNC1=Nc2ccc(Br)cc2C(c2ccccc2Cl)=NC1` [Compound VII] has an IC50 (HIV integrase) of 5 µM, an IC50 (HIV-1 integrase [1]) of 2 µM and an IC50 (HIV-1 integrase [2]) of 10 µM.
`O=C(NNC1=Nc2ccccc2C(c2ccccc2)=NC1)c1cnccn1` [Compound VI] was tested, and the IC50 (HIV integrase) was 2 to 3 µM, the IC50 (HIV-1 integrase [1]) was 2 µM and the IC50 (HIV-1 integrase [2]) was 5 µM.
